By EC50 is commonly meant the concentration needed to bring the measured effect to its halfway point.

SMILES strings stand for the structures. Read-outs that look alike come from different tables or passages of the source. Some results are limits rather than exact numbers.

In data set [1] the test system is L. mexicana axenic amastigotes. The data set can be described thus: Initial screen, L. mexicana axenic amastigotes, Alamar Blue. The note with it: for initial hit against L. mexicana: growth inhibited by ≥80%; for activity at 2 µM / inhibition of growth at 2 µM: Leishmania mexicana; for inhibition of growth at 2 µM: read-out: initial hit L.m. The class given is cell-based, Leishmania mexicana. A digest of the protocol: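 Purified temperate plant natural products from a commercial library (1 mg/mL in DMSO) were tested against Leishmania mexicana axenic amastigotes at a final 2 μM. Parasites were seeded at 1 × 10^6 cells/mL in 96-well plates containing 200 μL culture and incubated 72 h. Growth was measured by Alamar Blue and normalised to DMSO controls (1% v/v), with triplicates over two biological replicates (n = 6).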
In general terms: The colour change of resazurin is a common sign of viable cells or microbes.

In data set [2] the test system is L. mexicana axenic amastigotes. The data set can be described thus: Concentration-response EC50, L. mexicana axenic amastigotes (WT). The class given is cell-based, Leishmania mexicana.
Description: Initial hits from the parasite panel screen were taken forward in log concentration versus normalised response assays to estimate the half maximal effective concentration (EC50) in hit species as well as the half maximal cytotoxic concentrations (CC50) in the human hepatoma cell line HepG2 as a preliminary test for selectivity. Using CC50/EC50 to define the selectivity index (SI), the selectivity for each compound in a defined species compared to a human cell line was estimated and compared to the EC50 (Figure 3).
EC50 values were determined by serial two-fold dilution of each compound in 96 well plates. Culture conditions and viability assays were as stated for the initial screen, with some exceptions. L. mexicana and L. donovani axenic amastigotes were seeded at 2 × 10^6 cell/s mL, T. brucei and T. evansi were seeded at 2 × 10^5 cells/mL. For cytotoxicity studies, HepG2 cells were seeded at 1 × 10^5 cells/mL, incubated for 48 h and viability was assessed using the Alamar Blue assay [66, 67]. […] Normalised growth and viability data (compared to untreated controls) were plotted against Log10 concentration to estimate EC50 in GraphPad (Prism v6).
Data set [3] in a line: Cytotoxicity CC50, HepG2, Alamar Blue. Conditions: human. Put shortly: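 Human hepatoma cells seeded at 1 × 10^5 cells/mL with two-fold serial compound dilutions, incubated 48 h at 37 °C, 5% CO2 in DMEM/10% FBS. Viability read by Alamar Blue. CC50 estimated from viability normalised to untreated controls versus log concentration.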
Where [4] appears, read: read-out: mean % growth, L. mexicana, initial screen, compared to a normalised control with same concentration of DMSO solvent.
The mark [5] stands for this setting: Leishmania mexicana, 72 h, read-out: L. mexicana EC50, axenic amastigotes, 72 h.
Where [6] appears, read: read-out: % growth L. mexicana, mean % growth compared to a normalised control with same concentration of DMSO solvent, initial screen.

On to `C=C1C(=O)OC2CC(C)C3C(OC)CC(=O)C3(C)C(OC(=O)C(C)CC)C12` (centres unmarked) [Compound 701159], for which the “initial hit against L. mexicana” value in data set [1] (2 μM) is “initial hits”. Besides, the activity at 2 µM in data set [1] (setting [4]) stood at 1.5%. In data set [1] (2 μM, x = initial hit), the inhibition of growth at 2 µM is greater than 80%. The EC50 in data set [2] (setting [5]) worked out at 870 nM. In addition, the CC50 at 48 h in data set [3] (pH 7, HepG2 CC50, 48 h) was determined as 3400 nM.

For `CC1OC(OC2C(OC(=O)C3CC[C@@H]4[C@H](C3)OC3(CC(OC(=O)/C=C/c5ccccc5)[C@@H](C)CO3)C43CO3)OC(CO)C(O)C2O)C(O)C(O)C1O` (some centres unmarked) [Compound 700042], the activity at 2 µM in data set [1] (setting [6]) was 79.1%. In data set [3] (pH 7, HepG2 CC50, 48 h), this compound returned a CC50 at 48 h of 2500 nM.

Turning to `C=C1C(=O)OC2CC(C)C3C=CC(=O)C3(C)C(OC(=O)C(C)CC)C12` (centres unmarked) [Compound 701158], the “initial hit against L. mexicana” value in data set [1] (2 μM) is “initial hits”. The inhibition of growth at 2 µM in data set [1] is greater than 80%. Further, in data set [1] (setting [4]), the activity at 2 µM was -1.7%. Further, the EC50 in data set [2] (setting [5]) is 240 nM. In data set [3] (pH 7, HepG2 CC50, 48 h), this compound came in with a CC50 at 48 h of 800 nM.

For the compound `CC1=CC(O)(CC(C)C2(C)CC=C3C4=CCC5C(C)(C)C(O)CCC5(C)C4CCC32C)OC1=O` (centres unmarked) [Compound 700022], the “initial hit against L. mexicana” value in data set [1] (2 μM) is reported as “initial hits”. Also, the activity at 2 µM in data set [1] (setting [6]) is 0.54%. In addition, the inhibition of growth at 2 µM in data set [1] (2 μM, x = initial hit) is greater than 80%. Moreover, the EC50 turned out to be 250 nM in data set [2] (setting [5]) and 240 nM in data set [2] (Leishmania mexicana, read-out: WT EC50, L. mexicana WT axenic amastigotes). The compound further gave a CC50 at 48 h in data set [3] (pH 7, HepG2 CC50) of 28000 nM.

As for `CC1=CC(O)(CC(C)C2(C)CCC3C4=CCC5C(C)(CCC(O)C5(C)C)C4=CCC32C)OC1=O` (centres unmarked) [Compound 700107], the “initial hit against L. mexicana” value in data set [1] (2 μM) is “initial hits”. For the same compound, the activity at 2 µM in data set [1] (setting [6]) is 8.1%. In addition, the inhibition of growth at 2 µM in data set [1] (2 μM, x = initial hit) was greater than 80%. Moreover, the EC50 in data set [2] (setting [5]) was 260 nM. The compound further had a CC50 at 48 h in data set [3] (pH 7, HepG2 CC50) of 45000 nM.

On to `C=C1C(=O)OC2CC(C)C3C=CC(=O)C3(C)C(OC(C)=O)C12` (centres unmarked) [Compound 701155], for which, in data set [1] (2 μM), the “initial hit against L. mexicana” value is listed as “initial hits”. Also, the “mean % growth, L. mexicana” value in data set [1] (initial screen, compared to a normalised control with same concentration of DMSO solvent) was -0.28%. Besides, the EC50 in data set [2] (read-out: L. mexicana EC50, axenic amastigotes, 72 h) amounted to 230 nM.

With `C=C1C(=O)OC2CC(C)C3C=CC(=O)C3(C)C(OC(=O)C(C)C)C12` (centres unmarked) [Compound 701157], the “initial hit against L. mexicana” value in data set [1] (2 μM) is “initial hits”. In addition, the inhibition of growth at 2 µM in data set [1] was greater than 80%. For the same compound, the activity at 2 µM in data set [1] (setting [4]) was found to be 0.07%. In data set [2] (setting [5]), the EC50 is 200 nM. Also, in data set [3] (pH 7, HepG2 CC50, 48 h), the CC50 at 48 h is 1300 nM.

Take `C/C(=C/C(=O)CC(C)C1CCC2(C)C3=CCC4C(C)(C)C(=O)CCC4(C)C3CCC12C)C(=O)O` (centres unmarked) [Compound 700240]: the “initial hit against L. mexicana” value in data set [1] (2 μM) is “initial hits”. For the same compound, in data set [1] (setting [6]), the activity at 2 µM was -10.1%. Further, in data set [1] (2 μM, x = initial hit), the inhibition of growth at 2 µM is greater than 80%. Moreover, the EC50 in data set [2] (setting [5]) came to 510 nM. This compound yielded a CC50 at 48 h in data set [3] (pH 7, HepG2 CC50) of 47000 nM.

With `CC1=CC(O)(CC(C)C2(C)CC=C3C4=CCC5C(C)(C)C(=O)CCC5(C)C4CCC32C)OC1=O` (centres unmarked) [Compound 700136], the “initial hit against L. mexicana” value in data set [1] (2 μM) is listed as “initial hits”. Also, in data set [1] (setting [6]), the activity at 2 µM is -0.4%. Further, the inhibition of growth at 2 µM in data set [1] (2 μM, x = initial hit) was greater than 80%. For the same compound, the EC50 in data set [2] (setting [5]) stood at 210 nM. In data set [3] (pH 7, HepG2 CC50), this compound returned a CC50 at 48 h of 28000 nM.

The values above are taken from publication PMC7998250, “Temperate Zone Plant Natural Products—A Novel Resource for Activity against Tropical Parasitic Diseases” (Pharmaceuticals, 2021).
